The nature of data set [1]: Evaluation of acute toxicity, fixed dosage test, 14-day observation. The data set is classed as in vivo, mice. The following applies: one dose intraperitoneally. How it is done: The concentration of cyclopalladated compounds of the invention as used in this study is being determined from the realization of a fixed dosage test, in which the substance to be tested is given to mice under specific dosage, which is selected from previously fixed dosages, according to classifications from ruling institutions, for which the maximum concentration to be tested should not surpass 2000 mg/kg.
After drug administration, a 14-day observation period follows. The dosage under which signs of acute toxicity are observed, such as changes in hair, mucosa and skin, as well as the occurrence of diarrhea and convulsions, conjunctivitis, excitement or slow movements, is used to graduate or classify the tested material.
Assayed compounds are diluted in saline containing 10% DMSO and then 0.2 ml of that solution are intraperitoneally given to the animals. Therefore, groups of 10 animals (5 males and 5 females) were treated with various doses of the compounds being studied. The control animals received only saline with 10% DMSO. After the end of the treatment, the animals remained in observation for a period of 14 days.

The subject of another data set is Ehrlich's ascitic tumor. Put plainly: Life extension of animals with Ehrlich's ascitic tumor. The data set is classed as in vivo, mice. As to conditions: 1 mg/kg subcutaneously, four consecutive days, start 72 hours after inoculation. An excerpt:
With the purpose to observe a possible protection of treated animals with the compounds of the invention, a life extension curve was drafted, considering animals with the Ehrlich's ascitic tumor, be them treated or not.
The Life Extension Curve of Kaplan-Meier was used to analyse the possibility of survival. The comparison between both groups (holders of tumor vs. holders of tumor/treated) was made by the Log-Rank method—non-parametrical procedures (Cox-Mantel). ANOVA variation analysis was used for the analysis of various groups. In case of significant difference, the Tukey's test was applied. In cases in which the number of samples between two groups was small, the Wilcoxon's non-parametrical test was used.
To develop the Ehrlich's ascitic tumor, mice are intraperitoneally inoculated with 0.1 ml of a suspension of tumor cells containing 10^6 cells, originating from the peritoneal cavity of holder mice. After taking out the ascitic liquid from the peritoneum of mice holding the tumor of Ehrlich, the number and viability of cells are determined by using trypan blue colorant in a Neubauer chamber.
With the purpose to observe possible protection of treated animals with the compounds [Pd2(C^2,N-S-dmpa)2(μ-dpp)Cl2] e [Pd2(C^2,N-S-dmpa)2(μ-dppf)(N3)2] (as per scheme C shown in generic structures), a life extension curve was made. […]

Another data set relates to HL60 cells. The experiment in a line: Morphological aspect of treated HL60 cells. The following applies: 72 hours. It counts as cell-based. An excerpt:
From the results obtained by experiments as illustrated by Example 11, we verified cytotoxic activity of the cyclopalladated compounds in both studied lines, with results obtained from the two compounds being similar (FIGS. 10 and 11). […] On the other hand, the morphological aspect of leukemic cells HL60 treated with cyclopalladated compounds is that of cells in scheduled cell death process or apoptosis, as illustrated by FIG. 12.

A further data set addresses T1, ACE (Mus musculus, UniProt P09470).
T1 construct: host or cells: mouse plasma, in vivo
T1 sequence (P09470 35-1312): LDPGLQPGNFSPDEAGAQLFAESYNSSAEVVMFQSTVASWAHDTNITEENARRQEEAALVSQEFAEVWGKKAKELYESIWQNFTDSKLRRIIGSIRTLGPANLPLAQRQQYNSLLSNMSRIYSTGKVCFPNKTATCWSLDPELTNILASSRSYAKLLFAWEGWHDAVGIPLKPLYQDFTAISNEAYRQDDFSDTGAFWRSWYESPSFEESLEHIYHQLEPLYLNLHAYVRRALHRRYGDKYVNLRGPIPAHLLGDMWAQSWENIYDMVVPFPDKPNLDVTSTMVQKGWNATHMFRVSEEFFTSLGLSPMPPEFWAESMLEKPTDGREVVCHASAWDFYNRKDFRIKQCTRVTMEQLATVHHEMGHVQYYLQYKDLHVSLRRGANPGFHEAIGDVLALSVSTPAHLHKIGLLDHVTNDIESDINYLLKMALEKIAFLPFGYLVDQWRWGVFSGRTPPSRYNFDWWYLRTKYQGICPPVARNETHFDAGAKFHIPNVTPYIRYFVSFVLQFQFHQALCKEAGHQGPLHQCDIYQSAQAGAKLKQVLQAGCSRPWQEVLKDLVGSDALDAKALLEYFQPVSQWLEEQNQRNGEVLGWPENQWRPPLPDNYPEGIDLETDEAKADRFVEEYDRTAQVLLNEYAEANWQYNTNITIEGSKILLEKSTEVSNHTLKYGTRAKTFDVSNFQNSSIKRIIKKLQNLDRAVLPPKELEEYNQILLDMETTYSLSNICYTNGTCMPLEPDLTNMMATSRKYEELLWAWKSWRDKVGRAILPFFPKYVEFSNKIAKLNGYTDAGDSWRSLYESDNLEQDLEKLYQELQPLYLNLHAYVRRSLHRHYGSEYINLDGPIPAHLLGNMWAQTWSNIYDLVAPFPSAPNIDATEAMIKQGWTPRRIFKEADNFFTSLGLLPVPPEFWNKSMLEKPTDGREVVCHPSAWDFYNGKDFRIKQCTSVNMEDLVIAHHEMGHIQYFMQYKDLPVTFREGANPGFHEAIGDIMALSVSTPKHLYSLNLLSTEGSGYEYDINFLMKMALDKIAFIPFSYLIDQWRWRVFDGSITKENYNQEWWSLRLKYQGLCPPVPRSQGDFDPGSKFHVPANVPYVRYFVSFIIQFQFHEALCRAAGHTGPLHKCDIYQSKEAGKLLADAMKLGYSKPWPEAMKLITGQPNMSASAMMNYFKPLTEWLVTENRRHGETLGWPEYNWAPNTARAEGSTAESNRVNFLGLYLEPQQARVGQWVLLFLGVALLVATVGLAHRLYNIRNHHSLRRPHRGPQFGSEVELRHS
The following applies: administration one hour after radiation; cited from earlier work.

The next data set has as its target T2, Cathepsin B (Homo sapiens, UniProt P07858).
T2 construct: purchased Calbiochem Co
Put plainly: Cathepsin B endopeptidase activity, hydrolysis of fluorogenic substrate Z-Phe-Arg-MCA (spectrofluorimetry). It counts as biochemical. The following applies: for Ki: pH 6.4, 37° C., substrate Z-Phe-Arg-MCA. How it is done:
Cathepsin B and papain were supplied by the company Calbiochem Co. and the concentration of active enzymes was determined by titulation using the cysteine-protease inhibitor known as E-64. Cathepsin B and papain were packed at 4° C. within 50 mM in sodium acetate buffer (pH 5.0) containing 10 μM MMTS. The fluorogenic substrate amidomethylcoumaryl Z-Phe-Arg-MCA, tripsin and the irreversible papain inhibitor E-64 were supplied by Sigma.
The influence of the organometal compounds on the activity of endopeptidase cathepsin B was determined by spectrofluorimetry, using the fluorogenic substrate Z-Phe-Arg-MCA. This peptide is a good substrate for cathepsin B with kcat/Ks=4.5 10^5 M^−1.s^−1 and was chosen so to locate residues Phe and Arg in P2 and P1, respectively. The substrate covers the main linkage sites S2, S1 and S′1 with cysteine-proteases similar to papain (Turk, D. et al, Revised definition of substrate binding sites of papain-like cysteine proteases, J. Biol. Chem.; 1998, 379, 137-147).
The intensities of fluorescence signals were monitored by a thermostatic spectrofluorimetry Hitachi F-2000. Wavelength was calibrated at 380 nm for excitation and 440 nm for emission. The activation of the enzyme was made by incubation for five minutes at 37° C. in a buffer solution of 50 mM sodium phosphate (pH 6.4) containing NaCl 200 mM, EDTA 1 mM and DTT 2 mM. Measurements were taken in the same activation buffer of cathepsin B and kynetic standards were set up by taking the initial hydrolysis rate under various concentrations of the substrate in the presence or absence of different concentrations of organometal compounds. The results were analysed by non-linear regression by using the software GraFit 3.01 (Erithacus Software Ltd.).
The Kynetic model of Scheme 1 describes the effect of heparin over the hydrolysis of Z-Phe-Arg-MCA by cathepsin B:
In which S represents the substrate Z-Phe-Arg-MCA; I represents the cyclometal compound; E represents cathepsin B; KS represents the dissociation constant of the substrate; KI represents the apparent dissociation constant of the organometal; α is a disturbance standard of KS; and β is a disturbance standard of Vmax (kcat), with the standards being in accordance to the equation: […]
Data were treated according to Equation 1, by using non-linear regression and the values for the constants were calculated. […] The hydrolysis rate of the second order substrates was the same, kcat/Ks=4.5 10^5 M^−1s^−1, in the presence or absence of [Pd (C^2,N-(R+dmpa)(dppf)]N3.

Data on five compounds can be found in US7432403B2, “Cyclic palladium compounds having coordinated thereto bis (diphenylphosphine) ferrocene ligands which inhibit the activity of proteins and enzymes and treatment of diseases and disorders associated therewith” (Fundação De Amparo À Pesquisa Do Estado de São Paulo, priority 2002, dated 2008).

Like-named read-outs stand apart in the source and are kept apart here.

Regarding `C[C@H]1c2cccc[c]2[Pd-2]([Cl])([P+](c2ccccc2)(c2ccccc2)[c-]2cccc2)[N+]1(C)C.C[C@H]1c2cccc[c]2[Pd-2]([Cl])([P+](c2ccccc2)(c2ccccc2)[c-]2cccc2)[N+]1(C)C.[Fe+2]` (stereo partly drawn) [4a, [Pd2(C^2,N-S-dmpa)2(μ-dppf)Cl2]], in data set [1] (500 mg/kg), the Signs and symptoms entry is on record as “Lack of acute toxicity signs”.

As for `C[C@@H]1c2cccc[c]2[Pd-2]([Cl])([P+](c2ccccc2)(c2ccccc2)[c-]2cccc2)[N+]1(C)C.C[C@@H]1c2cccc[c]2[Pd-2]([Cl])([P+](c2ccccc2)(c2ccccc2)[c-]2cccc2)[N+]1(C)C.[Fe+2]` (stereo partly drawn) [4b, [Pd2(C^2,N-R+ dmpa)2(μ-dppf)Cl2]], in data set [1] (10 mg/kg, listed as R(^+)dmpa Cl^− dppf (1:1), 10 mg/kg), the Signs and symptoms entry was “Signs of conjunctivitis”.

With `C[C@H]1c2cccc[c]2[Pd-2]([Cl])([P+](c2ccccc2)(c2ccccc2)[c-]2cccc2)[N+]1(C)C.[Fe+2].c1ccc(P(c2ccccc2)[c-]2cccc2)cc1` (stereo partly drawn) [[Pd(C^2,N-(S-dmpa)(dppf)Cl]], in the data set on Ehrlich's ascitic tumor, the “life extension of animals holding the ascitic tumor of Ehrlich” value is listed as “increased the life extension”. For the same compound, the “morphological aspect of treated HL60 cells” value with HL60 cells is “aspects of an apoptosis cell”.

On to `NCCCC[C@H](N[C@@H](CCc1ccccc1)C(=O)O)C(=O)N1CCC[C@H]1C(=O)O` [lisinopryl], for which, at ACE, the “inhibition of murine plasma activity for ACE” value was 100%.

Take [Pd(C^2,N-(R+dmpa)(dppf)]N3 [2a]: at Cathepsin B, the “inhibition of Cathepsin B” value amounted to 81%, the “product formation constant reduced to” value came to 36, the “reduction of kcat in the presence of the compound” value is on record as 5.6 times and the “α (disturbance standard of KS)” value turned out to be 0.19±0.02. Further, at Cathepsin B, the “β (disturbance standard of Vmax, kcat)” value is 0.18±0.02 and the β/α was found to be 1.1±0.1. Moreover, at Cathepsin B (in the presence of the compound), the “increase of the affinity between Cathepsin B and the substrate Z-Phe-Arg-MCA” value is 5.3 time. Also, the Ki on Cathepsin B (read-out: dissociation constant KH, compound linked to free Cathepsin B (E)) amounted to 12 ± 1 µM. Further, the Ki at Cathepsin B (read-out: dissociation constant αKH, compound linked to the enzyme-substrate (ES) complex) is 2.4 ± 0.3 µM. The “Ks value in the presence of the organometal compound” value at Cathepsin B (reduced from 110±15 without compound) is 21 ± 2 µM.
